# Reference: US20250295679A1, “Compositions and Dosage Forms for Treatment of HPV Infection and HPV-Induced Neoplasia” (priority 2022, published 2025)
# Assays:
# [1] = Polymorph screening by equilibration in solvents; format: physicochemical
# [2] = Hygroscopicity by DVS at 25° C.; format: physicochemical; conditions: cycle of 40-0-95-0-45% relative humidity
# [3] = Solubility in buffers, water and simulated vaginal fluid at 37° C.; conditions: for pH of solution at 2 hours: 37° C.
# [4] = Bulk (accelerated) stability, one week, HPLC and XRPD; conditions: for Bulk (HPLC) Purity: 1 week
# Procedure: Bulk stability: Accelerated stability experiments were conducted at 25° C./92% RH and 40° C./75% RH in an open container, 60° C. in a tight container for one week.
# Samples were characterized by XRPD and HPLC and inspected for color change.
# Accelerated stability experiments were conducted at 25° C./92% RH in an open container, at 40° C./75% RH in an open container, and at 60° C. in a tight container for one week.
# [5] = Hygroscopicity by DVS at 25° C.; format: physicochemical; conditions: for XRPD after DVS test: 25° C.
# Procedure: Hygroscopicity was investigated by DVS at 25° C., using the following method: • Method: 40-0-95-0-40% RH, dm/dt=0.002
# [6] = 37 °C, pH 3, aqueous buffer, thermodynamic from solid
# [7] = 37 °C, pH 4.2, fassgf or other biorelevant, thermodynamic from solid
# [8] = 37 °C, pH 4.5, aqueous buffer, thermodynamic from solid
# [9] = 37 °C, pH 6.8, aqueous buffer, thermodynamic from solid
# [10] = 37 °C, water, thermodynamic from solid
smiles,measurement,setting,value
"CCOC(=O)[C@H](C)N[P@](=O)(COCCn1cnc2c(OC)nc(N)nc21)OCc1ccccc1.O=C(O)/C=C/C(=O)O (single isomer, unassigned) [Compound III]",Crystal modification after 1 week equilibration at 25° C.,[1]; PS1: IPA,Compound V Pattern 2
same,Crystal modification after 1 week equilibration at 25° C.,[1]; PS2: Heptanes,Compound III Pattern 2
same,Crystal modification after 1 week equilibration at 25° C.,[1]; PS3: Water,Compound III Pattern 3
same,Crystal modification after 1 week equilibration at 25° C.,[1]; PS4: ACN,Compound III Pattern 4
same,Crystal modification after 1 week equilibration at 25° C.,[1]; PS5: MEK,Compound III Pattern 5
same,Crystal modification after 1 week equilibration at 25° C.,"[1]; PS7: IPA/heptanes (3/10, v/v)",Compound III Pattern 2
same,Crystal modification after 1 week equilibration at 25° C.,"[1]; PS8: water/ACN (2.9/97.1, v/v)",Compound III Pattern 4
same,Crystal modification after 1 week equilibration at 25° C.,"[1]; PS9: IPA/MTBE (1/3, v/v)",Compound III Pattern 6
same,Crystal modification after 1 week equilibration at 25° C.,"[1]; PS10: EA/toluene (1/3, v/v)",Compound III Pattern 2
same,Dissociation of the salt during equilibration experiments,"[1]; equilibration in solvents, 1 week, 25° C.",dissociation was observed
same,Fold increase of retained water content over Compound II,[2],40 fold
same,solubility at 0.5 h,[3]; [6],> 2000 µg/mL
same,solubility at 2 h,[3]; [6],> 2000 µg/mL
same,solubility at 0.5 h,[3]; [7],> 2000 µg/mL
same,solubility at 2 h,[3]; [7],> 2000 µg/mL
same,solubility at 0.5 h,[3]; [8],> 2000 µg/mL
same,solubility at 2 h,[3]; [8],> 2000 µg/mL
same,solubility at 0.5 h,[3]; [9],> 2000 µg/mL
same,solubility at 2 h,[3]; [9],> 2000 µg/mL
same,solubility,"[3]; 37 °C, thermodynamic from solid",> 2000 µg/mL
same,solubility at 0.5 h,[3]; [10],> 2000 µg/mL
same,solubility at 2 h,[3]; [10],> 2000 µg/mL
same,pH of solution at 2 hours,"[3]; ES1: pH 3.0, 100 mM citrate buffer",2.83
same,pH of solution at 2 hours,"[3]; ES2: pH 4.5, 50 mM acetate buffer",4.12
same,pH of solution at 2 hours,"[3]; ES3: pH 6.8, 50 mM phosphate buffer",6.44
same,pH of solution at 2 hours,[3]; ES4: Water,2.78
same,pH of solution at 2 hours,[3]; ES5: Simulated vaginal fluid (pH adjusted by 0.1N NaOH),5.37
same,Stability after exposure to the three conditions,"[4]; 25° C./92% RH open, 40° C./75% RH open, 60° C. tight container, one week",good physical stability
same,Bulk (HPLC) Purity,"[4]; BS1: solid state, 25° C./92% RH, open container",98.7%
same,Bulk (HPLC) Purity,"[4]; BS2: solid state, 40° C./75% RH, open container",97.2%
same,Bulk (HPLC) Purity,"[4]; BS3: solid state, 60° C., tight container",97.3%
same,"HPLC purity, Initial",[4]; initial chemical purity before storage,98.8%
same,Desorp. (%) Cycle 1,"[5]; DVS 25° C., 0% RH",0.00%
same,Desorp. (%) Cycle 2,"[5]; DVS 25° C., 0% RH",0.00%
same,Sorp. (%) Cycle 1,"[5]; DVS 25° C., 0% RH",0.00%
same,Sorp. (%) Cycle 2,"[5]; DVS 25° C., 0% RH",0.00%
same,Desorp. (%) Cycle 1,"[5]; DVS 25° C., 10% RH",0.07%
same,Desorp. (%) Cycle 2,"[5]; DVS 25° C., 10% RH",0.07%
same,Sorp. (%) Cycle 1,"[5]; DVS 25° C., 10% RH",0.07%
same,Sorp. (%) Cycle 2,"[5]; DVS 25° C., 10% RH",0.07%
same,Desorp. (%) Cycle 1,"[5]; DVS 25° C., 20% RH",0.15%
same,Desorp. (%) Cycle 2,"[5]; DVS 25° C., 20% RH",0.15%
same,Sorp. (%) Cycle 1,"[5]; DVS 25° C., 20% RH",0.14%
same,Sorp. (%) Cycle 2,"[5]; DVS 25° C., 20% RH",0.14%
same,Desorp. (%) Cycle 1,"[5]; DVS 25° C., 30% RH",0.23%
same,Desorp. (%) Cycle 2,"[5]; DVS 25° C., 30% RH",0.23%
same,Sorp. (%) Cycle 1,"[5]; DVS 25° C., 30% RH",0.22%
same,Sorp. (%) Cycle 2,"[5]; DVS 25° C., 30% RH",0.22%
same,Desorp. (%) Cycle 1,"[5]; DVS 25° C., 40% RH",0.30%
same,Desorp. (%) Cycle 2,"[5]; DVS 25° C., 40% RH",0.32%
same,Sorp. (%) Cycle 1,"[5]; DVS 25° C., 40% RH",0.29%
same,Sorp. (%) Cycle 2,"[5]; DVS 25° C., 40% RH",0.30%
same,Desorp. (%) Cycle 2,"[5]; DVS 25° C., 50% RH",0.41%
same,Sorp. (%) Cycle 1,"[5]; DVS 25° C., 50% RH",0.39%
same,Desorp. (%) Cycle 2,"[5]; DVS 25° C., 60% RH",0.52%
same,Sorp. (%) Cycle 1,"[5]; DVS 25° C., 60% RH",0.47%
same,Desorp. (%) Cycle 2,"[5]; DVS 25° C., 70% RH",0.67%
same,Sorp. (%) Cycle 1,"[5]; DVS 25° C., 70% RH",0.59%
same,Desorp. (%) Cycle 2,"[5]; DVS 25° C., 80% RH",0.81%
same,Sorp. (%) Cycle 1,"[5]; DVS 25° C., 80% RH",0.71%
same,Desorp. (%) Cycle 2,"[5]; DVS 25° C., 90% RH",0.97%
same,Sorp. (%) Cycle 1,"[5]; DVS 25° C., 90% RH",0.92%
same,Desorp. (%) Cycle 2,"[5]; DVS 25° C., 95% RH",1.01%
same,Sorp. (%) Cycle 1,"[5]; DVS 25° C., 95% RH",1.01%
same,Hygroscopicity,"[5]; DVS at 25° C., in words",slightly hygroscopic
same,XRPD after DVS test,[5]; after DVS 40-0-95-0-40% RH,No form change
same,XRPD after DVS test,"[5]; after humidity cycle 40-0-95-0-40% RH, listed as Compound III Pattern 2, monofumarate",No form change
same,XRPD after DVS test,"[5]; after humidity cycle 40-0-95-0-40% RH, monofumarate",lose one of the peaks
same,Water uptake,"[5]; up to / in 95% RH, DVS 25° C.",about 1.0%
